From ChEMBL document CHEMBL3132769, “Fragment growing to retain or alter the selectivity of anchored kinase hinge-binding fragments” (Medchemcomm, 2014)

How the values were obtained:
[1] = target: Epidermal growth factor receptor (Homo sapiens) (UniProt P00533); assay: Inhibition of human EGFR catalytic domain expressed in baculovirus assessed as substrate phosphorylation using fluorescence-labelled peptides as substrate at 0.1 uM after 90 mins by microfluidic peptide phosphorylation assay
[2] = target: Insulin receptor (Homo sapiens) (UniProt P06213); assay: Inhibition of human INSR catalytic domain expressed in baculovirus assessed as substrate phosphorylation using fluorescence-labelled peptides as substrate at 420 uM after 90 mins by microfluidic peptide phosphorylation assay
[3] = target: T1, Mitogen-activated protein kinase 13 (Homo sapiens) (UniProt O15264); assay: Inhibition of human full length p38 delta expressed in Escherichia coli cell assessed as substrate phosphorylation using fluorescence-labelled peptides as substrate at 420 uM after 90 mins by microfluidic peptide phosphorylation assay
T1 sequence (whole entry): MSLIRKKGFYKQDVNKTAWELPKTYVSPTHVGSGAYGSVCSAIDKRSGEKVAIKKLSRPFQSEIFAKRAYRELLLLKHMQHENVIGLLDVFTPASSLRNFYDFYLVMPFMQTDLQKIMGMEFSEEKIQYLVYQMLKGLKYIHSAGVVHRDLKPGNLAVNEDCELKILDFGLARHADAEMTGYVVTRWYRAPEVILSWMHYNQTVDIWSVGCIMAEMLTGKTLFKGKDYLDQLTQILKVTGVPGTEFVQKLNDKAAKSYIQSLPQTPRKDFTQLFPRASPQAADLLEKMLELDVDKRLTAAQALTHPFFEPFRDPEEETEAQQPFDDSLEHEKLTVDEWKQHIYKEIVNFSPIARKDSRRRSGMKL

[4] = target: Protein kinase C eta type (Homo sapiens) (UniProt P24723); assay: Inhibition of human truncated PKC eta expressed in baculovirus assessed as substrate phosphorylation using fluorescence-labelled peptides as substrate at 420 uM after 90 mins by microfluidic peptide phosphorylation assay
Chain of Protein kinase C eta type (Homo sapiens) (P24723 whole entry, the tested form may be a part): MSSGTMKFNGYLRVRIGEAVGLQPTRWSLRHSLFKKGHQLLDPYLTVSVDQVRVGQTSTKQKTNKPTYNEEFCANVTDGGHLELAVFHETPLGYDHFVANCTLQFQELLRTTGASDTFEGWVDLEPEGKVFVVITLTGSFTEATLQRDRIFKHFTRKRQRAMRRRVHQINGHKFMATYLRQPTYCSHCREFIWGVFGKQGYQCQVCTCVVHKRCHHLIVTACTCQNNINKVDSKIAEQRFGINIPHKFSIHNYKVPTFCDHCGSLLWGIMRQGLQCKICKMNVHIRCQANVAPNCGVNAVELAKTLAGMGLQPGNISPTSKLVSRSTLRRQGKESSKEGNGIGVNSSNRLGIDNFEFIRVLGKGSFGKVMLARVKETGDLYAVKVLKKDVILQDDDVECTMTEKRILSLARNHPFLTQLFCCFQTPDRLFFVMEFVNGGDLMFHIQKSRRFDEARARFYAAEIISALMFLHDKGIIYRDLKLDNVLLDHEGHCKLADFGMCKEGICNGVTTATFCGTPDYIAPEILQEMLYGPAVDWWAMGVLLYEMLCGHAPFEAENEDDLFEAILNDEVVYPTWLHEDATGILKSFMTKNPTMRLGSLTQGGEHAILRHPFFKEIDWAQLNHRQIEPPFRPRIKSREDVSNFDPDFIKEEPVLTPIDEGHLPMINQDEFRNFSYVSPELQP

[5] = target: Protein kinase C beta type (Homo sapiens) (UniProt P05771); assay: Inhibition of human truncated PKC beta1 expressed in baculovirus assessed as substrate phosphorylation using fluorescence-labelled peptides as substrate at 420 uM after 90 mins by microfluidic peptide phosphorylation assay
Chain of Protein kinase C beta type (Homo sapiens) (P05771 2-671 limits assumed): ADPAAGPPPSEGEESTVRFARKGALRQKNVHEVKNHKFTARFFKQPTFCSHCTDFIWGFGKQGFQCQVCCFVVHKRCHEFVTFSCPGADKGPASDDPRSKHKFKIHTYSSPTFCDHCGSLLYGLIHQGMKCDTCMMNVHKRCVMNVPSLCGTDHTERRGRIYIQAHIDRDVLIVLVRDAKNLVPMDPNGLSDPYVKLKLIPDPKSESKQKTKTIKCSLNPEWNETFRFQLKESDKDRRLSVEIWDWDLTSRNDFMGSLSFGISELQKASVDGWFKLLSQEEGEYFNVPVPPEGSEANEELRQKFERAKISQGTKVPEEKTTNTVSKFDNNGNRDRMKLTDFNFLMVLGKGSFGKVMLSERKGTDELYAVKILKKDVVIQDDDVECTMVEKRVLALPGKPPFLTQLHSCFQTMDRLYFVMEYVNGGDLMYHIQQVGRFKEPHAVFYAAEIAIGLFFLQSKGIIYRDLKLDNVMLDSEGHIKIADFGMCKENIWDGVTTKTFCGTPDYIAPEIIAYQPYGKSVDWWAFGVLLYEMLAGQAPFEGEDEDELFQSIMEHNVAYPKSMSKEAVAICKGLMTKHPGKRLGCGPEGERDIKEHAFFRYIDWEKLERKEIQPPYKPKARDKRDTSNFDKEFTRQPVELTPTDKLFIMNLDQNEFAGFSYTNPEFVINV

[6] = target: T2, Protein kinase C epsilon type (Homo sapiens) (UniProt Q02156); assay: Inhibition of human truncated PKC epsilon expressed in baculovirus assessed as substrate phosphorylation using fluorescence-labelled peptides as substrate at 70 uM after 90 mins by microfluidic peptide phosphorylation assay
T2 sequence (whole entry): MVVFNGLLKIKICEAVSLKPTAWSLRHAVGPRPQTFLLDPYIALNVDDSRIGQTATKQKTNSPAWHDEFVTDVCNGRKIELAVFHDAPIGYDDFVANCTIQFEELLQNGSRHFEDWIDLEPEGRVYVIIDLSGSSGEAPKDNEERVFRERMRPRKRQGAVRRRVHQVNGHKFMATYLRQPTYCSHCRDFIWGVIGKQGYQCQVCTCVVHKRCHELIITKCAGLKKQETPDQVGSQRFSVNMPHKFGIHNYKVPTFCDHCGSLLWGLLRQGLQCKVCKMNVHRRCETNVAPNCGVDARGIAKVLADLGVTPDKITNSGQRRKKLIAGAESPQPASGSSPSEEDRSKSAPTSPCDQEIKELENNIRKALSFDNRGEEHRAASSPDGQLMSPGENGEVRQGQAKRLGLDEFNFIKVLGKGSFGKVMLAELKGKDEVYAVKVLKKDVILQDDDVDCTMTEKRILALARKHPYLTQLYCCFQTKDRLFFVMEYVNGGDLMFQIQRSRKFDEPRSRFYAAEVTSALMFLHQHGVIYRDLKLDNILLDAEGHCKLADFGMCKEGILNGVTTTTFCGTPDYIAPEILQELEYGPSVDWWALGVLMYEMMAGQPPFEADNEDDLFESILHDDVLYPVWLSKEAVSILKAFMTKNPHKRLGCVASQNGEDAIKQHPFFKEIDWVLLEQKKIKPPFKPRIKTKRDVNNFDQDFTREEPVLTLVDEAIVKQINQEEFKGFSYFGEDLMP

[7] = target: Mitogen-activated protein kinase kinase kinase kinase 4 (Homo sapiens) (UniProt O95819); assay: Inhibition of human HGK catalytic domain expressed in baculovirus assessed as substrate phosphorylation using fluorescence-labelled peptides as substrate at 70 uM after 90 mins by microfluidic peptide phosphorylation assay
Chain of Mitogen-activated protein kinase kinase kinase kinase 4 (Homo sapiens) (O95819 2-1239 limits assumed): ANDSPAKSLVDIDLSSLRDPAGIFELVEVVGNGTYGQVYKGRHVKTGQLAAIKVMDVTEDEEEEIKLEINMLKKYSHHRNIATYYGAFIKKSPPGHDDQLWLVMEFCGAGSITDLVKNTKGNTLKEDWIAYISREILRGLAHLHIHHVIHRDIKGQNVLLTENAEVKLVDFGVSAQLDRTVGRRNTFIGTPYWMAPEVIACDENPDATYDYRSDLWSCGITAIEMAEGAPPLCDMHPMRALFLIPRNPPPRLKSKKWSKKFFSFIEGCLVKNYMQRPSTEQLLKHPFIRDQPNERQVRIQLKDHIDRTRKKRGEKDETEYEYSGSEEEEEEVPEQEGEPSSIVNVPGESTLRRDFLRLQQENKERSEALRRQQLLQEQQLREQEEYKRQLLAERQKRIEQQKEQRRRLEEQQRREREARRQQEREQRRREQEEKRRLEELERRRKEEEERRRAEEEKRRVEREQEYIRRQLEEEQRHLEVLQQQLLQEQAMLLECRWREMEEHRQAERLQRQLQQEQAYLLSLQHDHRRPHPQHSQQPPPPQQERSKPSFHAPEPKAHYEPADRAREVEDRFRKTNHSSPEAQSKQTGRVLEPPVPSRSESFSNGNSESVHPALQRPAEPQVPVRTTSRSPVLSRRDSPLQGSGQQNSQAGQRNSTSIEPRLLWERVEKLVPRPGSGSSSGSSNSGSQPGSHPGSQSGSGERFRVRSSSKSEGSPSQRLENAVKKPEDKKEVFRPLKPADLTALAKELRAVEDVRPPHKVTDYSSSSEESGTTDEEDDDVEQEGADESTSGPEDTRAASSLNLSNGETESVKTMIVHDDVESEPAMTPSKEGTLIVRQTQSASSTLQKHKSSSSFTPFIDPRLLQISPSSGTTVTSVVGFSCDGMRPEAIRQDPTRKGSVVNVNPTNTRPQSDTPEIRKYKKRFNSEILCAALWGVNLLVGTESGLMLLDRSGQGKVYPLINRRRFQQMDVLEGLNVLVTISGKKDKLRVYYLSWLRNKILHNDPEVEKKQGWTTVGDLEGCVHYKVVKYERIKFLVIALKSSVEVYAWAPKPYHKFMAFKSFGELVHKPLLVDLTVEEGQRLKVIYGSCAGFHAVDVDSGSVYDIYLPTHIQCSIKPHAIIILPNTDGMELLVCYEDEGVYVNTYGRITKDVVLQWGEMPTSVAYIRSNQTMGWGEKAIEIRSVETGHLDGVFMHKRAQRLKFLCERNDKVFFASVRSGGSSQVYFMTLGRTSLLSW

[8] = target: T3, Calcium/calmodulin-dependent protein kinase type IV (Homo sapiens) (UniProt Q16566); assay: Inhibition of human full length CAMK4 expressed in baculovirus assessed as substrate phosphorylation using fluorescence-labelled peptides as substrate at 8 uM after 90 mins by microfluidic peptide phosphorylation assay
T3 sequence (whole entry): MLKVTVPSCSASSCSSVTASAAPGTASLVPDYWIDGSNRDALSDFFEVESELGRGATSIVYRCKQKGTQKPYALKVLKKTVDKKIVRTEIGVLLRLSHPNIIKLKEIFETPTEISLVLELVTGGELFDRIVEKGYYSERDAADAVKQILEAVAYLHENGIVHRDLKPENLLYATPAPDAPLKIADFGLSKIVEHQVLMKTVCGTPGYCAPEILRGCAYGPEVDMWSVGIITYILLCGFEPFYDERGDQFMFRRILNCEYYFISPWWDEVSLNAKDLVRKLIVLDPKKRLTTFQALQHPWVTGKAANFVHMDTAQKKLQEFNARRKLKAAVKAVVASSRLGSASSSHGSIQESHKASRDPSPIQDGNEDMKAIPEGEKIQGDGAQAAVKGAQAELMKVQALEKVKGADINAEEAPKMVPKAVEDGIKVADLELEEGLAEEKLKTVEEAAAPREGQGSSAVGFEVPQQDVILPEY

[9] = target: Tyrosine-protein kinase BTK (Homo sapiens) (UniProt Q06187); assay: Inhibition of human full length BTK expressed in baculovirus assessed as substrate phosphorylation using fluorescence-labelled peptides as substrate at 1000 uM after 90 mins by microfluidic peptide phosphorylation assay
Chain of Tyrosine-protein kinase BTK (Homo sapiens) (Q06187 whole entry, the tested form may be a part): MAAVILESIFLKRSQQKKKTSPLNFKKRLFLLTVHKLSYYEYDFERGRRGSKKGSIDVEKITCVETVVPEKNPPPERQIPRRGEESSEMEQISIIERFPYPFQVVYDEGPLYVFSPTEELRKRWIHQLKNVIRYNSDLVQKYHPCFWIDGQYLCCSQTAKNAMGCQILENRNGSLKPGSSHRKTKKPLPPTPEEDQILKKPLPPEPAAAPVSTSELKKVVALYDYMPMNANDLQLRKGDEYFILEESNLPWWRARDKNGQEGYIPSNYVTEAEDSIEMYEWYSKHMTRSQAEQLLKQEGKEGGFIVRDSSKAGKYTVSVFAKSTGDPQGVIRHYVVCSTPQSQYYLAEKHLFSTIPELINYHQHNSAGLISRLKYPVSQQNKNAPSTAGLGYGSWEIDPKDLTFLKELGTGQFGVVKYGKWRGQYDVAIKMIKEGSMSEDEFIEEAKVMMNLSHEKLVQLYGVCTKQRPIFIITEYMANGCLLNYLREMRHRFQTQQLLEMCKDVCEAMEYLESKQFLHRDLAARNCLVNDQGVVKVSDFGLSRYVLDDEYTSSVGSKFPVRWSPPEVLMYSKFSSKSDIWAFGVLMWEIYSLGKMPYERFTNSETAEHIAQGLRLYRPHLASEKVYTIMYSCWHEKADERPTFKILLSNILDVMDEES

[10] = target: Fibroblast growth factor receptor 2 (Homo sapiens) (UniProt P21802); assay: Inhibition of human FGFR2 catalytic domain expressed in baculovirus assessed as substrate phosphorylation using fluorescence-labelled peptides as substrate at 1000 uM after 90 mins by microfluidic peptide phosphorylation assay
Chain of Fibroblast growth factor receptor 2 (Homo sapiens) (P21802 22-821 limits assumed): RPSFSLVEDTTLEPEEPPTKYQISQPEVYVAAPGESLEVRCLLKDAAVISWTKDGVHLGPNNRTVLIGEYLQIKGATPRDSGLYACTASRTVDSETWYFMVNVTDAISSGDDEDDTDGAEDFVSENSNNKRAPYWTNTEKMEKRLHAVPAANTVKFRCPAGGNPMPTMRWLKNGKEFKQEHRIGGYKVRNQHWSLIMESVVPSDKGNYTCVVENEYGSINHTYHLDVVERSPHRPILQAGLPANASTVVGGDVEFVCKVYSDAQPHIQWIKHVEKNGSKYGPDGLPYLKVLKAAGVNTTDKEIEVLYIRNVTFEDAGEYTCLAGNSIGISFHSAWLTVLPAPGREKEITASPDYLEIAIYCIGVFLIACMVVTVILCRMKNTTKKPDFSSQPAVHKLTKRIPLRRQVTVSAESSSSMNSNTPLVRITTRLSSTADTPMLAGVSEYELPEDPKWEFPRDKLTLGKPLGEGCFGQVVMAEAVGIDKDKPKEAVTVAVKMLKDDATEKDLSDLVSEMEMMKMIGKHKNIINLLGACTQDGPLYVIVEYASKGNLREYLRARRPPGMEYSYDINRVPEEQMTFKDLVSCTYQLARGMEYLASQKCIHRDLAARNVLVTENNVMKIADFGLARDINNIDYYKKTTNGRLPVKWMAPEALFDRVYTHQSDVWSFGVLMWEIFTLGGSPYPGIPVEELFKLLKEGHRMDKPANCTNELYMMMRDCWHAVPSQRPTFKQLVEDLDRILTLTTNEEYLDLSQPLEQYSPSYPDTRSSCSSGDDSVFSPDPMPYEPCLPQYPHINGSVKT

[11] = target: Tyrosine-protein kinase HCK (Homo sapiens) (UniProt P08631); assay: Inhibition of human HCK catalytic domain expressed in baculovirus assessed as substrate phosphorylation using fluorescence-labelled peptides as substrate at 1000 uM after 90 mins by microfluidic peptide phosphorylation assay
Chain of Tyrosine-protein kinase HCK (Homo sapiens) (P08631 2-526 limits assumed): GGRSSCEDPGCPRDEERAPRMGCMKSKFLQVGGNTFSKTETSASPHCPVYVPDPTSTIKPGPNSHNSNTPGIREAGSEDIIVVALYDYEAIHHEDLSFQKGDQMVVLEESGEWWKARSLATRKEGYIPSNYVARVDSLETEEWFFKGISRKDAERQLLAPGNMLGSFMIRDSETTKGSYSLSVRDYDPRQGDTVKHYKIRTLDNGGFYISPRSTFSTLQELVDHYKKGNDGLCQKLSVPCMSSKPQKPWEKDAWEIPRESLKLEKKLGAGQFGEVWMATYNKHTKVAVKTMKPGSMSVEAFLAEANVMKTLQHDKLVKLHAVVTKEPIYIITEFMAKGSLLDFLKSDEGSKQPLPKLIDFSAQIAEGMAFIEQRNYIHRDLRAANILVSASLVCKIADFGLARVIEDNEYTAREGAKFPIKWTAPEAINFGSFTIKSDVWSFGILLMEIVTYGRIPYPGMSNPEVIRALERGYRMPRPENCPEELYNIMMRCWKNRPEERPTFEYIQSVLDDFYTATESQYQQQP

## C[C@H](CN(C)C)Oc1nc(Nc2cc3cccc(Cl)c3cn2)cnc1C#N
[1]
  inhibition: 0.5%

## c1nc(N2CCOCC2)c2nc[nH]c2n1
[2]
  inhibition: 8%
[3]
  inhibition: 34%
[4]
  inhibition: 82%
[5]
  inhibition: 70%

## CNCc1ccc(-c2ncnc3[nH]cnc23)cc1
[6]
  inhibition: 44%
[7]
  inhibition: 42%

## NCC1CCN(c2ncnc3[nH]ccc23)CC1
[8]
  inhibition: 43%

## c1cnc2[nH]ccc2c1
[9]
  inhibition: 19%
[10]
  inhibition: 62%
[11]
  inhibition: 30%
